# According to patent US10105357B2, “Indication of antibiotic drugs for preparation of cancer inhibition pharmaceutical composition” (LAUNX BIOMEDICAL CO., LTD., priority 2014, dated 2018):
# Where a name gives a salt, the structure may show the parent alone. Read-outs that look alike come from different tables or passages of the source.
# Experiments:
# [1] = system: HepG2 (Hepatocellular Carcinoma); experiment: Cell viability analysis, hepatic cancer HepG2; assay type: cell-based, human; settings: Homo sapiens
# [2] = system: C-33A (Cervical carcinoma); experiment: Cell viability analysis, cervical cancer C-33A; assay type: cell-based, human; settings: Homo sapiens, C-33-A, 72 h, read-out: The results of antibiotic drug inhibiting cancer cell lines (cell viability analysis), C-33A
# [3] = system: MCF7 (Mammary Gland, Adenocarcinoma); experiment: Cell viability analysis, breast cancer MCF7; assay type: cell-based, human; settings: Homo sapiens
# [4] = system: AGS (Gastric Adenocarcinoma); experiment: Cell viability analysis, gastric cancer AGS; assay type: cell-based, human; settings: Homo sapiens
# [5] = system: MDA-MB-231 (Mammary Gland, Adenocarcinoma); experiment: Cell viability analysis, breast cancer MDA-MB-231; assay type: cell-based, human; settings: Homo sapiens, MDA-MB-231, 72 h, read-out: The results of antibiotic drug inhibiting cancer cell lines (cell viability analysis), MDA-MB231
# [6] = system: A375 (Amelanotic Melanoma); experiment: Cell viability analysis, skin cancer A375; assay type: cell-based, human; settings: Homo sapiens
# [7] = system: 786-O (Renal adenocarcinoma); experiment: Cell viability analysis, renal cancer 786-O; assay type: cell-based, human; settings: Homo sapiens, 786-0, 72 h, read-out: The results of antibiotic drug inhibiting cancer cell lines (cell viability analysis), 786-O
# AsPC-1 = experiment: Cell viability analysis, pancreatic cancer AsPC-1; assay type: cell-based, human; settings: Homo sapiens, ASPC1, 72 h, read-out: The results of antibiotic drug inhibiting cancer cell lines (cell viability analysis), AsPC-1
# [8] = system: A549 (Lung Adenocarcinoma); experiment: Cell viability analysis, lung cancer A549; assay type: cell-based, human; settings: Homo sapiens
# TOV-21G = experiment: Cell viability analysis, ovarian cancer TOV-21G; assay type: cell-based, human; settings: Homo sapiens, TOV21G, 72 h, read-out: The results of antibiotic drug inhibiting cancer cell lines (cell viability analysis), TOV-21G
# [9] = system: LoVo (Colorectal Adenocarcinoma); experiment: Cell viability analysis, colon cancer LoVo; assay type: cell-based, human; settings: Homo sapiens, LoVo
# [10] = system: HCT116 (p53+) (Colorectal Carcinoma)
# T24 = experiment: Cell viability analysis, bladder cancer T24; assay type: cell-based, human; settings: Homo sapiens, T-24, 72 h, read-out: The results of antibiotic drug inhibiting cancer cell lines (cell viability analysis), T24
# NIH: OVCAR-3 = experiment: Cell viability analysis, ovarian cancer NIH: OVCAR-3; assay type: cell-based, human; settings: Homo sapiens, OVCAR-3, 72 h, read-out: The results of antibiotic drug inhibiting cancer cell lines (cell viability analysis), NIH-OVCAR-3
# [11] = system: TSGH-8301 (Urinary Bladder Carcinoma); experiment: Cell viability analysis, bladder cancer TSGH-8301; assay type: cell-based, human; settings: Homo sapiens
# [12] = system: MKN-45 (Gastric Adenocarcinoma); experiment: Cell viability analysis, gastric cancer MKN-45; assay type: cell-based, human; settings: Homo sapiens
# cancer cell lines = experiment: Cell viability analysis (WST-1) on cancer cell lines; assay type: cell-based, human; settings: drug 10 μM, 72 hours, WST-1; Table 3
# U-2OS = experiment: Cell viability analysis, osteosarcoma U-2OS; assay type: cell-based, human; settings: Homo sapiens, U2OS, 72 h, read-out: The results of antibiotic drug inhibiting cancer cell lines (cell viability analysis), U2OS
# [13] = system: HI650 (Lung Adenocarcinoma); experiment: Cell viability analysis, lung cancer HI650; assay type: cell-based, human; settings: Homo sapiens
# [14] = system: PC3 (p53−) (Prostate Adenocarcinoma); experiment: Cell viability analysis, prostate cancer PC3; assay type: cell-based, human; settings: Homo sapiens
# BxPC-3 = experiment: Cell viability analysis, pancreatic cancer BxPC-3; assay type: cell-based, human; settings: Homo sapiens, BXPC-3, 72 h, read-out: The results of antibiotic drug inhibiting cancer cell lines (cell viability analysis), BxPC-3
# [15] = system: BCC (basal cell carcinoma); experiment: Cell viability analysis, skin cancer BCC; assay type: cell-based, human; settings: Homo sapiens, 72 h, read-out: The results of antibiotic drug inhibiting cancer cell lines (cell viability analysis), BCC
# [16] = system: HeLa (Cervix Adenocarcinoma); experiment: Cell viability analysis, cervical cancer HeLa; assay type: cell-based, human; settings: Homo sapiens, HeLa
# [17] = system: Hep3B (hepatocellular carcinoma); experiment: Cell viability analysis, hepatic cancer Hep3B; assay type: cell-based, human; settings: Homo sapiens, Hep3B, 72 h, read-out: The results of antibiotic drug inhibiting cancer cell lines (cell viability analysis), Hep3B
# [18] = system: SAS (Tongue squamous cell carcinoma); experiment: Cell viability analysis, tongue cancer SAS; assay type: cell-based, human; settings: Homo sapiens, 72 h, read-out: The results of antibiotic drug inhibiting cancer cell lines (cell viability analysis), SAS
smiles,measurement,setting,value
CN(C)C(=O)C(CCN1CCC(O)(c2ccc(Cl)cc2)CC1)(c1ccccc1)c1ccccc1 [Loperamide hydrochloride],viability at 10 µM,"[1]; 72 h, HepG2, repeated experiment, read-out: The results of antibiotic drug inhibiting cancer cell lines (cell viability analysis), HepG2",35.8%
same,viability at 10 µM,"[1]; HepG2, drug 10 μM, 72 hours, WST-1, OD450 nm, read-out: cell viability (survival rate), HepG2",103%
same,viability at 10 µM,[2],39.6%
same,viability at 10 µM,"[3]; MCF7, 72 h, MCF-7, repeated experiment, read-out: The results of antibiotic drug inhibiting cancer cell lines (cell viability analysis), MCF-7",36.2%
same,viability at 10 µM,"[3]; MCF7, drug 10 μM, 72 hours, WST-1, OD450 nm, read-out: cell viability (survival rate), MCF7",78.9%
same,viability at 10 µM,"[4]; 72 h, AGS, repeated experiment, read-out: The results of antibiotic drug inhibiting cancer cell lines (cell viability analysis), AGS",22.2%
same,viability at 10 µM,"[4]; drug 10 μM, 72 hours, WST-1, OD450 nm, read-out: cell viability (survival rate), AGS",57.3%
same,viability at 10 µM,[5],72.5%
same,viability at 10 µM,"[6]; A-375, 72 h, A375, repeated experiment, read-out: The results of antibiotic drug inhibiting cancer cell lines (cell viability analysis), A375",34.3%
same,viability at 10 µM,"[6]; A-375, drug 10 μM, 72 hours, WST-1, OD450 nm, read-out: cell viability (survival rate), A375",58.8%
same,viability at 10 µM,[7],40.9%
same,viability at 10 µM,AsPC-1,47.5%
same,viability at 10 µM,"[8]; 72 h, A549, repeated experiment, read-out: The results of antibiotic drug inhibiting cancer cell lines (cell viability analysis), A549",26.2%
same,viability at 10 µM,"[8]; A549, drug 10 μM, 72 hours, WST-1, OD450 nm, read-out: cell viability (survival rate), A549",104%
same,viability at 10 µM,TOV-21G,24.2%
same,viability at 10 µM,"[9]; 72 h, repeated experiment, read-out: The results of antibiotic drug inhibiting cancer cell lines (cell viability analysis), LoVo",49.3%
same,viability at 10 µM,"[9]; drug 10 μM, 72 hours, WST-1, OD450 nm, read-out: cell viability (survival rate), LoVo",64.8%
same,viability,[10],47.3%
same,viability at 10 µM,T24,73.5%
same,viability at 10 µM,NIH: OVCAR-3,75.5%
same,viability at 10 µM,"[11]; 72 h, TSGH-8301, repeated experiment, read-out: The results of antibiotic drug inhibiting cancer cell lines (cell viability analysis), TSGH-8301",42.9%
same,viability at 10 µM,"[11]; drug 10 μM, 72 hours, WST-1, OD450 nm, read-out: cell viability (survival rate), TSGH",42.7%
same,viability at 10 µM,"[12]; 72 h, MKN-45, repeated experiment, read-out: The results of antibiotic drug inhibiting cancer cell lines (cell viability analysis), MKN-45",61.5%
same,viability at 10 µM,"[12]; MKN-45, drug 10 μM, 72 hours, WST-1, OD450 nm, read-out: cell viability (survival rate), MKN-45",64.3%
same,inhibition effect on different cancer cell lines,cancer cell lines,significant inhibition effect
same,viability at 10 µM,U-2OS,32%
same,viability at 10 µM,"[13]; NCI-H1650, 72 h, H1650, repeated experiment, read-out: The results of antibiotic drug inhibiting cancer cell lines (cell viability analysis), H1650",41.3%
same,viability at 10 µM,"[13]; NCI-H1650, drug 10 μM, 72 hours, WST-1, OD450 nm, read-out: cell viability (survival rate), H1650",66.7%
same,viability at 10 µM,"[14]; 72 h, PC-3, repeated experiment, read-out: The results of antibiotic drug inhibiting cancer cell lines (cell viability analysis), PC-3",41.6%
same,viability at 10 µM,"[14]; drug 10 μM, 72 hours, WST-1, OD450 nm, read-out: cell viability (survival rate), PC3",64.7%
same,viability at 10 µM,BxPC-3,35.7%
same,viability at 10 µM,[15],51.5%
same,viability at 10 µM,"[16]; 72 h, repeated experiment, read-out: The results of antibiotic drug inhibiting cancer cell lines (cell viability analysis), HeLa",36.8%
same,viability at 10 µM,"[16]; drug 10 μM, 72 hours, WST-1, OD450 nm, read-out: cell viability (survival rate), HeLa",73%
same,viability at 10 µM,[17],50.2%
same,viability at 10 µM,[18],31.8%
CC[C@H]1OC(=O)[C@H](C)[C@@H](O[C@H]2C[C@@](C)(OC)[C@@H](O)[C@H](C)O2)[C@H](C)[C@@H](O[C@@H]2O[C@H](C)C[C@H](N(C)C)[C@H]2O)[C@](C)(O)C[C@@H](C)CN(C)[C@H](C)[C@@H](O)[C@]1(C)O [Azithromycin Dihydrate],viability at 10 µM,"[1]; HepG2, 72 h, read-out: The results of antibiotic drug inhibiting cancer cell lines (cell viability analysis), HepG2, HepG2, repeated experiment",91.4%
same,viability at 10 µM,"[1]; HepG2, 72 h, read-out: cell viability (survival rate), HepG2, drug 10 μM, 72 hours, WST-1, OD450 nm",81.1%
same,viability at 10 µM,[2],92.6%
same,viability at 10 µM,"[3]; MCF7, 72 h, read-out: The results of antibiotic drug inhibiting cancer cell lines (cell viability analysis), MCF-7, MCF-7, repeated experiment",62.3%
same,viability at 10 µM,"[3]; MCF7, 72 h, read-out: cell viability (survival rate), MCF7, drug 10 μM, 72 hours, WST-1, OD450 nm",36.4%
same,viability at 10 µM,"[4]; 72 h, read-out: The results of antibiotic drug inhibiting cancer cell lines (cell viability analysis), AGS, repeated experiment",77.2%
same,viability at 10 µM,"[4]; 72 h, read-out: cell viability (survival rate), AGS, drug 10 μM, 72 hours, WST-1, OD450 nm",72.7%
same,viability at 10 µM,[5],97.8%
same,viability at 10 µM,"[6]; A-375, 72 h, read-out: The results of antibiotic drug inhibiting cancer cell lines (cell viability analysis), A375, A375, repeated experiment",97.4%
same,viability at 10 µM,"[6]; A-375, 72 h, read-out: cell viability (survival rate), A375, drug 10 μM, 72 hours, WST-1, OD450 nm",50.8%
same,viability at 10 µM,[7],91%
same,viability at 10 µM,AsPC-1,75.3%
same,viability at 10 µM,"[8]; A549, 72 h, read-out: The results of antibiotic drug inhibiting cancer cell lines (cell viability analysis), A549, A549, repeated experiment",66.3%
same,viability at 10 µM,"[8]; A549, 72 h, read-out: cell viability (survival rate), A549, drug 10 μM, 72 hours, WST-1, OD450 nm",41.4%
same,viability at 10 µM,TOV-21G,89.6%
same,viability at 10 µM,"[9]; 72 h, read-out: The results of antibiotic drug inhibiting cancer cell lines (cell viability analysis), LoVo, repeated experiment",79.2%
same,viability at 10 µM,"[9]; 72 h, read-out: cell viability (survival rate), LoVo, drug 10 μM, 72 hours, WST-1, OD450 nm",65.3%
same,viability,[10],80.7%
same,viability at 10 µM,T24,112%
same,viability at 10 µM,NIH: OVCAR-3,94%
same,viability at 10 µM,"[11]; 72 h, read-out: The results of antibiotic drug inhibiting cancer cell lines (cell viability analysis), TSGH-8301, TSGH-8301, repeated experiment",119%
same,viability at 10 µM,"[11]; 72 h, read-out: cell viability (survival rate), TSGH, drug 10 μM, 72 hours, WST-1, OD450 nm",39.4%
same,viability at 10 µM,"[12]; MKN-45, 72 h, read-out: The results of antibiotic drug inhibiting cancer cell lines (cell viability analysis), MKN-45, MKN-45, repeated experiment",95.8%
same,viability at 10 µM,"[12]; MKN-45, 72 h, read-out: cell viability (survival rate), MKN-45, drug 10 μM, 72 hours, WST-1, OD450 nm",51.2%
same,inhibition effect on different cancer cell lines,cancer cell lines,significant inhibition effect
same,viability at 10 µM,U-2OS,70.3%
same,viability at 10 µM,"[13]; NCI-H1650, 72 h, read-out: The results of antibiotic drug inhibiting cancer cell lines (cell viability analysis), H1650, H1650, repeated experiment",98.6%
same,viability at 10 µM,"[13]; NCI-H1650, 72 h, read-out: cell viability (survival rate), H1650, drug 10 μM, 72 hours, WST-1, OD450 nm",61.3%
same,viability at 10 µM,"[14]; 72 h, read-out: The results of antibiotic drug inhibiting cancer cell lines (cell viability analysis), PC-3, PC-3, repeated experiment",97.2%
same,viability at 10 µM,"[14]; 72 h, read-out: cell viability (survival rate), PC3, drug 10 μM, 72 hours, WST-1, OD450 nm",43%
same,viability at 10 µM,BxPC-3,71.3%
same,viability at 10 µM,[15],70.6%
same,viability at 10 µM,"[16]; 72 h, read-out: The results of antibiotic drug inhibiting cancer cell lines (cell viability analysis), HeLa, repeated experiment",105%
same,viability at 10 µM,"[16]; 72 h, read-out: cell viability (survival rate), HeLa, drug 10 μM, 72 hours, WST-1, OD450 nm",55.6%
same,viability at 10 µM,[17],109%
same,viability at 10 µM,[18],50%
